In patent EP3650451A1, “COMPOUNDS AND THEIR USES AS FLUORESCENT PROBES” (Consejo Superior de Investigaciones Cientificas, priority 2017, dated 2019):

Experiments:
[1] = Photophysical characterization: absorption and fluorescence spectra; assay type: physicochemical
Method: The photophysical characterization of probes 3 and 4 was carried out analyzing the corresponding absorption and fluorescence spectra in the UV-visible region of the spectrum.
Its photophysical behavior is dependent on the degree of substitution of the BODIPY, since the alkylation of the chromatophore induces sufficient steric hindrance to reduce the free rotation of the 8-mesityl group, a process that entails a significant reduction in fluorescence efficiency. Thus, probe 4 in water stands out for having a high molar absorption coefficient (3.8 × 10^4 M^-1 cm^-1 at 499 nm) and a very efficient fluorescence emission at 511 nm, with a quantum yield of up to 80%.

[2] = Stability in water: time evolution in D2O followed by 1H NMR (hydrolysis); assay type: physicochemical; conditions: 15 mM solution in D2O at 25 °C, read-out: t1/2 (hydrolysis) (converted)
Method: One of the critical factors that conditions the viability and applicability of functional dyes 3 and 4 as fluorescent mitochondrial probes is their stability in water, since these compounds contain two potentially labile B-O bonds linking the fluorophore with the carnitine substituent. This stability was determined analyzing the time evolution of 3 and 4 in a 15 mM solution in D2O at 25 °C using ^1H NMR. This technique makes it possible not only to define their stability, but also to identify the possible degradation products (Diagram 2). Both probes are hydrolyzed, generating free carnitine and the corresponding 4,4-dihydroxy-BODIPY derivatives 5 and 6. [drawing 8]
Compound 3 is quickly hydrolyzed (t1/2 = 10 min); however, the greater substitution of the tetramethylated derivative in 4 gives it greater stability (t1/2 = 6 h), which promotes its use as a fluorescent marker in live cells. Contrary to what might be believed, the generation of free carnitine and of the corresponding BODIPY derivatives 5 and 6 at physiological pH is, indeed, an advantage for its application in cell labels. Thus, (R)-carnitine is incorporated into the mitochondrial metabolism, while the boron of the hydrolyzed BODIPY can covalently bond to poly-hydroxilated molecules (for example, saccharides and glycoproteins), generating cyclic boronic esters. […]

[3] = tested on: SCC38 cells; assay: Stereospecificity of the mitochondrial labeling, flow cytometry; assay type: cell-based, human; conditions: all the selected concentrations, 30 min incubation
Method: • Fig. 1. In vivo labeling of SCC38 cells with compound 4 at different concentrations (50, 100 and 500 nM). Scale bar: 10 µm • Fig. 2. Flow cytometry studies in SCC38 and HeLa cell lines labeled with compound 4 and Mito Tracker® Red. Histograms wherein fluorescence intensity vs number of events is represented for each of the staining times (5, 15 and 30 min) and control (Ctrl), for the SCC38 and HeLa cells and for each of the two markers. • Fig. 3. Absorption (A) and fluorescence (B) spectra, normalized to molar absorption and fluorescence quantum yield of probe 4 in different solvents; chloroform (green), acetone (black), acetonitrile (red), ethanol (blue) and water (gray). • Fig. 4. […] (A) Flow cytometry analysis of SCC38 cells incubated in the presence (+FCCP) or absence (-FCCP) of FCCP 60 µM for 3 h before staining with 20 nM of 4 or 0.5 nm of MitoTracker. The data represent the mean fluorescence intensity (MFI) of the stained cells. […] The graphs show the fluorescence profiles of the regions of interest indicated with white lines in the right-hand panels. […] The data represent the mean fluorescence intensity (MFI) of the stained cells (upper panels) and representative images of the cytometry profiles (lower panels). • Fig. 7. […] (B) The data represent the mean fluorescence intensity (MFI) of the labeled cells. […]

[4] = tested on: SCC38 cells; assay: Co-localization by co-staining with MitoTracker Red, fluorescence microscopy of live cells; assay type: cell-based, human; conditions: co-staining, compound 4 50 nM, MitoTracker® Red 25 nM, 30 minutes
Method: (§1) The cell assays were carried out on two human cell lines: SCC38 and HeLa. The SCC38 line is derived from human laryngeal epidermoid carcinoma patients, while HeLa, the first human cell line established in culture, is derived from cervical cancer. The culture medium used for both cell lines was DMEM (Dulbecco's Modified Eagle's Medium) supplemented with 10% of fetal bovine serum (FBS), 100 U/mL of penicillin, 200 µg/mL of streptomycin, 100 µmol/L of non-essential amino acids and 2 mmol/L of glutamine. The cultures were incubated at 37 °C and 5% of CO2.
These cell lines were stained with the fluorescent probes synthesized following the following protocol: 30,000-50,000 SCC38 cells were plated on 24-well glass-bottomed plates and cultured to 70% confluence. The culture medium was then removed from the well and washed at least three times with DMEM medium without additives. Next, 1 mL of DMEM and the corresponding fluorescent compound was added to the well. The cells were incubated at 37 °C for 30 minutes, after which the medium was removed and newly washed with DMEM. Lastly, complete medium was added and the cells were observed under the microscope. Microscopy analysis was performed using a Zeiss Axio Observer Z1 microscope with AxioCam MRM and ApoTome 2 (Carl Zeiss, Germany) with different 40X 63X oil immersion objectives. The cells were also stained with MitoTracker® Red CMXRos (Thermo Fisher), following the manufacturer's instructions, with the aim of carrying out comparative studies with the new fluorescent markers synthesized herein. Initially, both compounds 3 and 4 were used at a concentration of 50 nM, and staining time was also 30 minutes.
In order to confirm the specificity of the mitochondrial labeling, co-localization studies were carried out by co-staining with the commercial mitochondrial marker MitoTracker® Red in the cell line. Compound 4 was used at a concentration of 50 nM and MitoTracker® Red at 25 nM. Both compounds were added simultaneously and incubated for 30 minutes.

[5] = tested on: SCC38 cells; assay: Labeling in the presence of FCCP (depolarized mitochondrial membrane), flow cytometry; assay type: cell-based, human; conditions: 60 µM FCCP for 3 h at 37 °C before staining; 20 nM of 4 or 0.5 nM of MitoTracker
Method: • Fig. 1. In vivo labeling of SCC38 cells with compound 4 at different concentrations (50, 100 and 500 nM). Scale bar: 10 µm • Fig. 2. Flow cytometry studies in SCC38 and HeLa cell lines labeled with compound 4 and Mito Tracker® Red. Histograms wherein fluorescence intensity vs number of events is represented for each of the staining times (5, 15 and 30 min) and control (Ctrl), for the SCC38 and HeLa cells and for each of the two markers. • Fig. 3. Absorption (A) and fluorescence (B) spectra, normalized to molar absorption and fluorescence quantum yield of probe 4 in different solvents; chloroform (green), acetone (black), acetonitrile (red), ethanol (blue) and water (gray). • Fig. 4. […] (A) Flow cytometry analysis of SCC38 cells incubated in the presence (+FCCP) or absence (-FCCP) of FCCP 60 µM for 3 h before staining with 20 nM of 4 or 0.5 nm of MitoTracker. The data represent the mean fluorescence intensity (MFI) of the stained cells. (B) Microscopy analysis of SCC38 cells pretreated or not with FCCP before co-staining with 20 nM of 4 and 0.5 nm of MitoTracker. The graphs show the fluorescence profiles of the regions of interest indicated with white lines in the right-hand panels. Scale bars: 10 µm). • Fig. 5. […] The data represent the mean fluorescence intensity (MFI) of the stained cells (upper panels) and representative images of the cytometry profiles (lower panels). • Fig. 7. […] (B) The data represent the mean fluorescence intensity (MFI) of the labeled cells.
The labeling was analyzed by flow cytometry in the presence of carbonyl cyanide-p-(trifluoromethoxy)phenylhydrazone (FCCP), a protonophore used to reduce the mitochondrial membrane potential (ΔΨm) through depolarization of the mitochondrial membrane. […] Indeed, the suppression of dye-mitochondria electrostatic attraction as a passive labeling mechanism reduces the concentration of the dye in the cell organelle and, thus, the probability and extent of the fluorescence deactivation processes, with the ensuing increase in their efficiency. […]

[6] = tested on: HeLa; assay: Kinetics of cell labeling by flow cytometry; assay type: cell-based, human; conditions: 50 nM, staining times 5, 15 and 30 min
Method: as §1
(§2) The kinetics of cell labeling with 4 was studied by flow cytometry with the SCC38 and HeLa cell lines, using MitoTracker® Red as a control marker, both at a concentration of 50 nM. The staining times studied were 5, 15, 30 and 45 minutes. After staining, the medium was removed, washed with PBS, trypsinized and the pellet was resuspended in 500 µL of PBS and introduced in the cytometer after filtration. A Beckman Coulter Cytomics FC500 Flow Cytometry Analyzer was used (Scientific-Technical Services, Universidad de Oviedo). Part of the resuspended cells were also plated and observed under the microscope.

[7] = tested on: SCC38; assay: Kinetics of cell labeling by flow cytometry; assay type: cell-based, human; conditions: SCC38, 50 nM, staining times 5, 15 and 30 min
Method: as §1, §2

[8] = tested on: SCC38 cells; assay: Inhibition of mitochondrial staining by (R)-palmitoylcarnitine (CACT substrate), flow cytometry; assay type: cell-based, human; conditions: co-incubation, probe 50 nm, (R)-palmitoylcarnitine 100, 250 and 500 nM
Method: The SCC38 cells were co-incubated with the indicated concentrations of (R)-palmitoylcarnitine and 50 nM of 4 (A) or 50 nM of MitoTracker (B) before analyzing by flow cytometry. The data represent the mean fluorescence intensity (MFI) of the stained cells (upper panels) and representative images of the cytometry profiles (lower panels). • Fig. 7.
To test if CACT was in fact involved in the channeling of 4 to the mitochondrial matrix, we firstly studied the effect of (R)-(+)-palmitoylcarnitine, a natural CACT substrate, in cell labeling by 4.

Cc1cc(C)c(C2=C3C=CC=[N+]3[B-]3(OC(=O)C[C@H](C[N+](C)(C)C)O3)n3cccc32)c(C)c1 (stereo partly shown) [Compound 3]
kfl: Radiative decay constant ([1]; Water): 0.66 10^8s^- 1 | knr: Non-Radiative decay constant ([1]; Water): 1.00 10^8s^- 1 | Δv: Stokes shift ([1]; Water): 542 cm⁻¹ | εmax: Molar extinction coefficient at the absorption peak ([1]; Water): 4.1 × 10^4 (M^-1 cm^- 1) | λab: Absorption peak wavelength ([1]; Water): 501 nm | τ: Fluorescence lifetime ([1]; Water): 6.00 ns | λfl: Fluorescence peak wavelength ([1]; Water, excitation at 490 nm): 515 nm | φf: Quantum yield ([1]; Water, reference PM567 in ethanol): 0.40 | tendency towards H- or J- type aggregation ([1]; concentrations as high as 10^-4 M): not exhibit any tendency towards H- or J- type aggregation | half-life at 15000 µM [2]: 10 min

CC1=CC(C)=[N+]2C1=C(c1c(C)cc(C)cc1C)c1c(C)cc(C)n1[B-]21OC(=O)C[C@@H](C[N+](C)(C)C)O1 (stereo partly drawn) [(S)-4]
fluorescence intensity compared with 4 [3]: considerably lower

ClCc1ccc(C2=c3cc4c5c(c3Oc3c2cc2c6c3CCCN6CCC2)CCC[N+]=5CCC4)cc1 [MitoTracker® Red, reference compound]
location of the stain in the mitochondria [4]: concentrated along the edges of the mitochondria | mitochondrial fluorescence of cells treated with FCCP [5]: highly attenuated mitochondrial fluorescence | change of staining intensity with incubation time [6]: barely varied upon increasing incubation time | change of staining intensity with incubation time [7]: barely varied upon increasing incubation time | effect of (R)-palmitoylcarnitine on fluorescence intensity [8]: only a slight increase of fluorescence
